Test results as given in paper PMC10056443, “Derivatives of Amaryllidaceae Alkaloid Ambelline as Selective Inhibitors of Hepatic Stage of Plasmodium berghei Infection In Vitro” (Pharmaceutics, 2023).
Read-outs that look alike come from different tables or passages of the source.

Legend:
Huh-7 cell line = assay: Huh-7 cell confluency by alamarBlue assay during hepatic-stage test; assay type: cell-based
Method: (§1) Activity against the hepatic stage of P. berghei infection was assessed using the human hepatoma cell line Huh-7 (deposited at the Japanese Collection of Research Bioresources under JCRB0403). The protocol was previously comprehensively described by Prudêncio et al. and by Ploemen et al.. Briefly, cell culture medium consisted of 1640 RPMI medium supplemented with 10% v/v fetal calf serum, 1% v/v L-glutamine, 1% v/v nonessential amino acids, 1% v/v penicillin/streptomycin, and 10 mM HEPES, pH 7. Cells were seeded in 96-well plates at a density of 1 × 10^4 cells per well in 100 µL of culture medium and incubated at 37 °C with 5% CO2 for approximately 18 h. […] The culture medium was substituted by infection medium with diluted compounds 1 hour in advance of infection. Luciferase-expressing P. berghei sporozoites (PbA-LuciGFPcon spz) were freshly obtained through the dissection of salivary glands from infected female Anopheles stephensi mosquitoes. Sporozoites were added to the cells at 1:1 ratio, i.e., 1 × 10^4 sporozoites were added per well, and then subjected to centrifugation at 1800× g for 5 min. The plate was then incubated for 46 h at 37 °C with 5% CO2, at which time Huh-7 cell confluency was indirectly assessed by the alamarBlue assay (Invitrogen, Waltham, MA, USA), as reported in the manufacturer’s protocol. Parasite load was assessed 48 h post-infection by a bioluminescence assay, as reported by the manufacturer (Biotium, Fremont, CA, USA). GraphPad Prism 8 (GraphPad Software, Inc., La Jolla, CA, USA) was used to obtain IC50 values using nonlinear regression analysis to fit the dose-response curves normalized results.

HepG2 cells = assay: Cytotoxicity assessment in vitro (MTT assay); assay type: cell-based
Method: (§2) HepG2 cells of human hepatocellular carcinoma (ATCC HB-8065; passage 20–25), purchased from Health Protection Agency Culture Collections (ECACC, Salisbury, UK), were cultured in Minimum Essential Medium Eagle supplemented with 10% v/v fetal bovine serum and 1% v/v L-glutamine solution (Sigma-Aldrich, St. Louis, MO, USA) at 37 °C in a humidified atmosphere containing 5% CO2. For passaging, the cells were treated with trypsin/EDTA (Sigma-Aldrich, St. Louis, MO, USA) at 37 °C and then harvested. For the cytotoxicity evaluation, the cells treated with the test substances were used, while untreated HepG2 cells served as a control group. The cells were seeded in a 96-well plate at a density of 1 × 10^4 cells per well and incubated for 24 h. All tested compounds were dissolved in DMSO to prepare 10 mM stock solutions and diluted to the desired concentration just before the cell treatment. Cytotoxicity of all studied derivatives was screened at 10 μM concentration, and all samples were measured in triplicates. Positive and negative controls were also included. Plates were incubated for 24 h in a humidified atmosphere containing 5% CO2 at 37 °C. After the incubation, a solution of thiazolyl blue tetrazolium bromide (Sigma-Aldrich, St. Louis, MO, USA) in RPMI 1640 medium without phenol red (BioTech, Prague, Czech Republic) was added and incubated for 3 h in a humidified atmosphere containing 5% CO2 at 37 °C. Afterwards, formazan crystals were dissolved in DMSO, and the absorbance of samples was recorded at 570 nm (Synergy Neo2 Multi-Mode Reader NEO2SMALPHAB; BioTek, Winooski, VT, USA).

[1] = Cytotoxicity assessment in vitro (MTT assay); assay type: cell-based; details: human
Method: as §2

[2] = tested on: P. falciparum NF54 ring-stage synchronized cultures; assay: In vitro activity against P. falciparum blood stages (flow cytometry, SYBR green I); assay type: cell-based, Plasmodium falciparum; details: Control = 7.76333, 48 h
Method: Activity against the blood stage of P. falciparum infection was assessed by flow cytometry analysis following the incubation of either test compounds or the drug vehicle (DMSO) with ring-stage synchronized parasite cultures, as previously described. Stock solutions of the test compounds, as well as of the positive control compound chloroquine, were prepared in DMSO and diluted to test concentrations in complete malaria culture medium (CMCM), i.e., 1640 RPMI medium supplemented with 25 mM HEPES, 2.4 mM L-glutamine, 50 µg/mL gentamicin, 0.5% w/v Albumax, 11 mM glucose, 1.47 mM hypoxanthine, and 37.3 mM NaHCO3. Samples at tested concentration were then incubated with ring-stage synchronized cultures of P. falciparum NF54 at 2.5% hematocrit and at approximately 1% parasitemia in 96-well plates at 37 °C in a 5% CO2 and 5% O2 atmosphere. Forty-eight hours post incubation, parasite load was assessed by flow cytometry, upon staining with the DNA-specific dye SYBR green I. Approximately 100,000 events were analyzed in each flow cytometry measurement.

[3] = tested on: hepatic stage of P. berghei; assay: In vitro activity against P. berghei hepatic stages (luciferase-expressing sporozoites in Huh-7 cells, bioluminescence); assay type: cell-based, Plasmodium berghei; details: Plasmodium berghei; for activity at 1 µM / activity at 10 µM: Huh-7, 48 h, DMSO = 100, read-out: INFECTION Ø screening
Method: as §1, with “Briefly, cell culture medium consisted of 1640 RPMI medium supplemented with 10% v/v fetal calf serum, 1% v/v L-glutamine, 1% v/v nonessential amino acids, 1% v/v penicillin/streptomycin, and 10 mM HEPES, pH 7.” left out

[4] = Huh-7, mean, unit (Table 1: µM), read-out: Antiplasmodial activity - Ø IC50
[5] = Huh-7, replicate 1, unit (Table 1: µM), read-out: Antiplasmodial activity - IC50 determination, 1. measurement
[6] = Huh-7, replicate 2, unit (Table 1: µM), read-out: Antiplasmodial activity - IC50 determination, 2. measurement
[7] = hepatic stage, Huh-7 cells, parasite load 48 h post-infection, read-out: IC50 P. berghei
[8] = Huh-7, replicate 3, unit (Table 1: µM), read-out: Antiplasmodial activity - IC50 determination, 3. measurement

Compound	CELL CONFLUENCY Ø screening (Huh-7 cell line; human, 46 h, 1 µM, pH 7)	CELL CONFLUENCY Ø screening (Huh-7 cell line; human, 46 h, 10 µM, pH 7)	1. screening of cytotoxic potential, HepG2 cell line (HepG2 cells; human, 24 h, 10 µM)	2. screening of cytotoxic potential, HepG2 cell line (HepG2 cells; human, 24 h, 10 µM)	3. screening of cytotoxic potential, HepG2 cell line (HepG2 cells; human, 24 h, 10 µM)	Ø screening, HepG2 (sheet Graphs) (HepG2 cells; human, 24 h, 10 µM)	viability at 24 h, 10 µM [1]	Ø screening, blood stage parasite load ([2]; at 10 nM)	Ø screening, blood stage parasite load ([2]; at 500 nM)	Ø screening, blood stage parasite load ([2]; at 100 nm)	activity at 1 µM [3]	activity at 10 µM [3]	IC50 [3, 4]	IC50 [3, 5]	IC50 [3, 6]	IC50 [3, 7]	IC50 [3, 8]	other results
COc1c2c(cc3c1OCO3)[C@]13C=C[C@H](OC)C[C@H]1N(C2)C[C@H]3OC(=O)c1ccc(C)cc1 [28g, 11-O-(4-Methylbenzoyl)ambelline]	89.36	93.96	50.18	56.25	43.46	49.96	50 ± 6%	5.187	4.26	4.963	23.1%	0.21%	0.402 µM	0.345 µM	0.46 µM	0.402 ± 0.081 µM	–	–
COc1c2c(cc3c1OCO3)[C@]13C=C[C@H](OC)C[C@H]1[N@](C2)C[C@H]3OC(C)=O [28a, 11-O-Acetylambelline]	94.22	93.33	104.06	105.26	110.57	106.6	107 ± 3%	7.817	11.5	10.27	79.5%	64.4%	–	–	–	> 10 µM	–	–
COc1c2c(cc3c1OCO3)[C@]13C=C[C@H](OC)C[C@H]1N(C2)C[C@H]3OC(=O)c1ccccc1 [28e, 11-O-Benzoylambelline]	94.15	86.56	98.77	99.24	87.15	95.05	95 ± 7%	7.597	7.383	7.907	45.7%	2.18%	0.726 µM	0.662 µM	0.646 µM	0.726 ± 0.126 µM	0.871 µM	–
COc1c2c(cc3c1OCO3)[C@]13C=C[C@H](OC)C[C@H]1N(C2)C[C@H]3OC(=O)c1cccc([N+](=O)[O-])c1 [28p, 11-O-(3-Nitrobenzoyl)ambelline]	87.05	79.58	70.36	72.83	81.93	75.04	75 ± 6%	4.593	4.517	4.83	48.1%	1.45%	1.53 µM	1.46 µM	1.36 µM	1.53 ± 0.22 µM	1.78 µM	–
COc1c2c(cc3c1OCO3)[C@]13C=C[C@H](OC)C[C@H]1N(C2)C[C@H]3OC(=O)C(C)C [28c, 11-O-Isobutanoylambelline]	94.69	93.64	97.78	100.15	88.22	95.38	95 ± 6%	7.643	7.21	8.26	89.1%	59.8%	–	15.5 µM	14.4 µM	> 10 µM	–	–
COc1c2c(cc3c1OCO3)[C@]13C=C[C@H](OC)C[C@H]1N(C2)C[C@H]3OC(=O)c1ccc([N+](=O)[O-])cc1 [28q, 11-O-(4-Nitrobenzoyl)ambelline]	102	102.2	48.34	59.99	49.2	52.51	53 ± 6%	6.94	4.487	4.835	64.6%	3.9%	1.2 µM	1.17 µM	1.03 µM	1.2 ± 0.18 µM	1.39 µM	–
COc1cccc(C(=O)O[C@@H]2CN3Cc4c(cc5c(c4OC)OCO5)[C@@]24C=C[C@H](OC)C[C@@H]34)c1 [28j, 11-O-(3-Methoxybenzoyl)ambelline]	–	–	–	–	–	–	–	–	–	–	10.8%	0.612%	–	0.19 µM	0.362 µM	0.261 ± 0.09 µM	0.232 µM	CELL CONFLUENCY Ø screening (Huh-7 cell line; at 1 μM, DMSO = 100, in % (unit assumed)): 109.9; CELL CONFLUENCY Ø screening (Huh-7 cell line; at 10 μM, DMSO = 100, in % (unit assumed)): 81.02; Ø screening, HepG2 (sheet Graphs) (HepG2 cells; c = 10 μM, DMSO = 100, in %): 80.77; 1. screening of cytotoxic potential, HepG2 cell line (HepG2 cells; c = 10 μM, replicate 1, in %): 69.18; 2. screening of cytotoxic potential, HepG2 cell line (HepG2 cells; c = 10 μM, replicate 2, in %): 85.98; 3. screening of cytotoxic potential, HepG2 cell line (HepG2 cells; c = 10 μM, replicate 3, in %): 87.15; viability at 24 h, 10 µM ([1]; c = 10 µM, 24 h, MTT, read-out: HepG2 % of cell viability compared to non-treated control (100%)): 81 ± 10%
